Reference: patent publication US4801697A, “Physiologically active substance TPI and production thereof” (Toyo Jozo Kabushiki Kaisha, priority 1985, dated 1989)
Converted amounts (≈) assume the structure as drawn.

What was measured:
bovine heart PDE = bovine heart PDE inhibitory action (5'-AMP produced from c-AMP measured by HPLC); format: biochemical; conditions: 0.4 mM c-AMP, 30 μg protein PDE, pH 7.5, 30° C., 30 minutes
Procedure: 40 mM Tris-HCl buffer solution (pH 7.5), 2 mM magnesium chloride, 0.4 mM c-AMP, PDE (30 μg protein, Boehringer Mannheim Co.) and TPI are combined to form a reaction mixture (1.0 ml) and the same is incubated at 30° C. for 30 minutes.

mice = assay: acute toxicity, intraperitoneal injection in mice; format: in vivo; conditions: 100 mg/kg intraperitoneally
Solubility = format: physicochemical; conditions: for Solubility: insoluble: hexane, benzene and petroleum ether; for Solubility: soluble: lower alcohol such as methanol, ethanol and butanol, ethyl acetate, dimethylsulfoxide, aqueous alkali

| SMILES | IC50 concentration (bovine heart PDE) | Solubility: insoluble (Solubility) | Solubility: soluble (Solubility) | Solubility: soluble (Solubility; chloroform) | deaths (mice) |
| --- | --- | --- | --- | --- | --- |
| COC(=O)C1=C(C)NC(C)=C(C(=O)OCCN(C)Cc2ccccc2)C1c1cccc([N+](=O)[O-])c1 (stereo not shown) [Nicardipine, nicardipine, reference compound] | 6.0 µg/mL (≈ 12.5 µM) | – | – | – | – |
| COc1ccc(Cc2nccc3cc(OC)c(OC)cc23)cc1OC [Papaverine, papaverine, reference compound] | 25 µg/mL (≈ 73.7 µM) | – | – | – | – |
| CCCCCCCc1cc(OC(=O)c2c(CCCCCCC)cc(O)cc2O[C@@H]2O[C@H](CO)[C@@H](O)[C@H](O)[C@H]2O)cc(O)c1C(=O)O [TPI-1] | 2.8 µg/mL (≈ 4.32 µM) | Insoluble | Soluble | – | No deaths occurred |
| CCCCCCCc1cc(OC(=O)c2c(CCCCCCC)cc(O)cc2O[C@@H]2O[C@H](CO)[C@H](O)[C@H](O)[C@H]2O)cc(O)c1C(=O)O [TPI-2] | 5.4 µg/mL (≈ 8.32 µM) | Insoluble | Soluble | – | – |
| Cn1c(=O)c2[nH]cnc2n(C)c1=O [Teophyllin, theophyllin, reference compound] | 470 µg/mL (≈ 2610 µM) | – | – | – | – |

More lines, main results first:

| IC50 concentration (bovine heart PDE) | Solubility: insoluble (Solubility) | Solubility: soluble (Solubility) | Solubility: soluble (Solubility; chloroform) | SMILES | deaths (mice) |
| --- | --- | --- | --- | --- | --- |
| 2.8 µg/mL (≈ 4.05 µM) | Insoluble | Soluble | – | CCCCCCCc1cc(OC(=O)c2c(CCCCCCC)cc(O)cc2O[C@@H]2O[C@H](COC(C)=O)[C@@H](O)[C@H](O)[C@H]2O)cc(O)c1C(=O)O [TPI-3] | – |
| 3.5 µg/mL (≈ 5.07 µM) | Insoluble | Soluble | – | CCCCCCCc1cc(OC(=O)c2c(CCCCCCC)cc(O)cc2O[C@@H]2O[C@H](COC(C)=O)[C@H](O)[C@H](O)[C@H]2O)cc(O)c1C(=O)O [TPI-4] | – |
| 2.3 µg/mL (≈ 4.73 µM) | Insoluble | – | Soluble | CCCCCCCc1cc(OC(=O)c2c(O)cc(O)cc2CCCCCCC)cc(O)c1C(=O)O [TPI-5] | – |
